Columns and labels:
Experiment in all cases: combination Emax (second highest fraction inhibited in the dose matrix, 72 h); higher = more inhibition; extreme values may be limits of the assay
[1] = test system: HT-1080 (Other Solid Carcinomas)
Summary of the method: (§1)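 Cell lines grown in DMEM/F12 or RPMI with 10% FBS were plated in 1536-well plates and held 24 hours at 37°C, 5% CO2 before 72 hours of exposure to two-drug dose matrices, with DMSO typically at 0.2%. CellTiter-Glo 2.0 luminescence gave viability, which was converted to inhibition. Vehicle wells were set to 0 and blank wells to 1. Combination Emax is the second-highest inhibition in the matrix, and Bliss excess is the observed combination effect minus the expected EA + EB − EA·EB, where EA and EB are the single-agent effects.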

[2] = test system: BxPC-3 (Pancreatic Carcinoma)
Summary of the method: as §1

[3] = test system: SKG-IIIa (Cervical Carcinoma)
Summary of the method: as §1

IST-MEL1 (Melanoma) = test system: IST-MEL1 (Melanoma)
Summary of the method: as §1

WM35 (Melanoma) = test system: WM35 (Melanoma)
Summary of the method: as §1

[4] = test system: ZR-75-30 (Breast Carcinoma)
Summary of the method: as §1

[5] = test system: MONO-MAC-6 (Acute Myeloid Leukemia)
Summary of the method: as §1

KALS-1 (Glioblastoma) = test system: KALS-1 (Glioblastoma)
Summary of the method: as §1

[6] = test system: LS-1034 (Colorectal Carcinoma)
Summary of the method: as §1

SK-N-SH (Neuroblastoma) = test system: SK-N-SH (Neuroblastoma)
Summary of the method: as §1

[7] = test system: OVCAR-3 (Ovarian Carcinoma)
Summary of the method: as §1

[8] = test system: C-33-A (Cervical Carcinoma)
Summary of the method: as §1

[9] = test system: BHT-101 (Thyroid Gland Carcinoma)
Summary of the method: as §1

[10] = test system: MOLP-8 (Plasma Cell Myeloma)
Summary of the method: as §1

Compound	combination Emax [1]	combination Emax [2]	combination Emax [3]	combination Emax (IST-MEL1 (Melanoma))	combination Emax (WM35 (Melanoma))	combination Emax [4]	combination Emax [5]	combination Emax (KALS-1 (Glioblastoma))	combination Emax [6]	combination Emax (SK-N-SH (Neuroblastoma))	combination Emax [7]	combination Emax [8]	combination Emax [9]	combination Emax [10]
Cc1c2c(nn1C)CSCc1cc(n(C)n1)CSc1cc(c3ccccc3c1)OCCCc1c(C(=O)O)n(C)c3c-2c(Cl)ccc13 [AZD5991] + CN(C)CCCOc1ccc(-c2ccc3ncc4c(c3c2)n(C2CCOCC2)c(=O)n4C)cn1 [AZD0156] (first compound max 1 µM, 7x7, partner max 1 µM)	0.183	0.174	0.218	0.196	0.231	0.286	1	0.273	0.217	0.454	0.427	0.245	0.659	1
Cc1c2c(nn1C)CSCc1cc(n(C)n1)CSc1cc(c3ccccc3c1)OCCCc1c(C(=O)O)n(C)c3c-2c(Cl)ccc13 [AZD5991] + C[C@@H]1COCCN1C2=NC(=NC(=C2)C3(CC3)[S@](=N)(=O)C)C4=C5C=CNC5=NC=C4 [AZD6738] (first compound max 1 µM, 7x7, partner max 10 µM)	0.495	0.518	0.333	0.788	0.343	0.429	1	0.926	0.673	0.961	0.567	0.923	0.859	1
Cc1c2c(nn1C)CSCc1cc(n(C)n1)CSc1cc(c3ccccc3c1)OCCCc1c(C(=O)O)n(C)c3c-2c(Cl)ccc13 [AZD5991] + C[C@@H](Nc1cc(F)cc(F)c1)c1cc(C(=O)N(C)C)cc2c(=O)cc(N3CCOCC3)oc12 [AZD8186] (first compound max 1 µM, 7x7, partner max 3 µM)	0.157	0.206	0.24	0.303	0.307	0.528	1	0.436	0.172	0.481	0.439	0.224	0.659	1
Cc1c2c(nn1C)CSCc1cc(n(C)n1)CSc1cc(c3ccccc3c1)OCCCc1c(C(=O)O)n(C)c3c-2c(Cl)ccc13 [AZD5991] + Cc1cc2ncnn2cc1Nc1ncc2c(n1)n(C1CCOCC1)c(=O)n2C [AZD7648] (first compound max 1 µM, 7x7, partner max 10 µM)	0.179	0.231	0.197	0.291	0.207	0.307	1	0.377	0.272	0.481	0.272	0.416	0.599	1
Cc1c2c(nn1C)CSCc1cc(n(C)n1)CSc1cc(c3ccccc3c1)OCCCc1c(C(=O)O)n(C)c3c-2c(Cl)ccc13 [AZD5991] + Cn1cnc2c(F)c(Nc3ccc(Br)cc3Cl)c(C(=O)NOCCO)cc21 [Selumetinib] (first compound max 1 µM, 7x7, partner max 3 µM)	0.428	0.483	0.24	0.395	0.929	0.281	1	0.24	0.587	0.414	0.218	0.365	0.913	1
C[C@@H]1COCCN1c1cc(C2([S@](C)(=N)=O)CC2)nc(-c2ccnc3[nH]ccc23)n1 [AZD6738] + O=C(c1cc(Cc2n[nH]c(=O)c3ccccc23)ccc1F)N1CCN(C(=O)C2CC2)CC1 [Olaparib] (first compound max 10 µM, 7x7, partner max 10 µM)	0.45	0.485	0.444	0.726	0.547	0.213	0.948	0.793	0.56	0.929	0.555	0.89	0.663	0.794
Cc1cc2ncnn2cc1Nc1ncc2c(n1)n(C1CCOCC1)c(=O)n2C [AZD7648] + C=CCn1c(=O)c2cnc(Nc3ccc(N4CCN(C)CC4)cc3)nc2n1-c1cccc(C(C)(C)O)n1 [AZD1775] (first compound max 10 µM, partner max 1 µM)	0.405	0.428	0.43	0.577	0.294	0.137	0.909	0.846	0.379	0.884	0.411	0.93	0.471	0.828
Cc1cc2ncnn2cc1Nc1ncc2c(n1)n(C1CCOCC1)c(=O)n2C [AZD7648] + CCN(CCO)CCCOc1ccc2c(Nc3cc(CC(=O)Nc4cccc(F)c4)[nH]n3)ncnc2c1 [AZD2811] (first compound max 10 µM, 7x7, partner max 1 µM)	0.261	0.25	0.297	0.457	0.155	0.141	0.787	0.386	0.264	0.625	0.116	0.368	0.25	0.493

Source: the supplement of paper PMC11061612
